Experimental data reported in patent publication US7034049B1, “3(5)-amino-pyrazole derivatives, process for their preparation and their use as antitumor agents” (Pharmacia Italia S.p.A., priority 1999, dated 2006).

Structure (SMILES)	melting point
CC(=O)Nc1cc(C2CC2)n[nH]1 [Compound 88, N-(3-cyclopropyl-1H-pyrazol-5-yl)acetamide]	167 to 171 °C
O=C(Nc1cc(C2CC2)n[nH]1)c1cc2ccccc2s1 [Compound 91, N-(3-cyclopropyl-1H-pyrazol-5-yl)-1-benzothiophene-2-carboxamide]	238 to 239 °C
O=C(CCc1ccccc1)Nc1cc(C2CC2)n[nH]1 [Compound 93, N-(3-cyclopropyl-1H-pyrazol-5-yl)-3-phenylpropanamide]	152 to 160 °C

Other lines, results leading:

melting point	Structure (SMILES)
173 to 174 °C	COC(=O)c1ccc(C(=O)Nc2cc(C3CC3)n[nH]2)cc1 [Compound 94, Methyl 4-{[(3-cyclopropyl-1H-pyrazol-5-yl)amino]carbonyl}benzoate]
268 to 269 °C	O=C(Nc1cc(C2CC2)n[nH]1)c1cc2ccccc2[nH]1 [Compound 102, N-(3-cyclopropyl-1H-pyrazol-5-yl)-1H-indole-2-carboxamide]
220 to 221 °C	O=C(Nc1cc(C2CC2)n[nH]1)c1ccc[nH]1 [Compound 248, N-(3-cyclopropyl-1H-pyrazol-5-yl)-1H-pyrrole-2-carboxamide]
